Laboratory results: patent publication US20260232750A1, “COMPOSITION AND METHOD FOR INHIBITING ADVANCED GLYCATION END PRODUCTS” (ACCESS BUSINESS GROUP INTERNATIONAL LLC, priority 2022, published 2026)
Several values for one entry are separate records, joined by “and”; a condition that tells them apart may be missing. Equal entries are not always repeated. Entries after “also recorded” stand apart in the source; their conditions may differ. Where two headings read alike, the source gives them in different places.

Legend:
DPPH· scavenging assay = assay type: biochemical
[1] = tested on: fluorescent AGEs (BSA-fructose/glucose system); assay: Fluorescent AGEs formation in a BSA-fructose/glucose system; assay type: biochemical, bovine; details: read-out: IC50, AGE formation
Protocol: The formation of total fluorescent AGEs in glycated samples was assessed by determining their fluorescent intensities at an excitation/emission wavelength of 350/450 nm, as previously described. Glycated protein was prepared in vitro by incubating BSA in the presence of D-glucose (GLC) and D-fructose (FRC). The DOF extract and specific standards were dissolved in DMSO:water (1:4). BSA (4 mg/ml, 100 μl) was preliminary mixed with 50 μl of GLC (0.5 M) and 50 μl of FRC (0.5 M) in 20 mM sodium phosphate buffer (pH 7.4), and then 100 μl samples were added in the 96-well plate and incubated at 37.5° C. for 7 days. All solutions were prepared under sterile conditions and filtered using a 0.22-μm syringe before incubation. The assay was performed in triplicate, and AG was used as a positive control.

[2] = FRAP total antioxidant capacity assay; assay type: biochemical
Protocol: Fast colourimetric methods were slightly modified for the in vitro assessment of DPPH· scavenging, ABTS·+ decolourisation capacity, and total antioxidant capacity of FRAP. The stock solutions of derivatisation reagents were diluted as follows before measurement: DPPH was diluted with absolute ethanol until the absorbance was 0.8±0.05 at λ=517 nm. ABTS working solution was prepared with phosphate buffer (0.2 M, pH 7.4) to display absorbance of 0.8±0.05 at λ=729 nm, based on a previous study. The FRAP solution was prepared according to the instructions of the FRAP kit. Absorbances were measured using an automatic microplate reader (Molecular Group Ltd., USA), and all analyses were performed using 96-well plates. All measurements were performed in triplicate, and Trolox was used as a positive control.
For total antioxidant capacity, 180 μl of FRAP solution was mixed with 5 μl of sample solution, and the absorbance was measured after 5 min at […] with PBS as the negative control. FeSO4 solutions (0.15, 0.3, 0.6, 0.9, 1.2, and 1.5 mM) were used for the calibration curve. The FRAP value represents the corresponding concentration of FeSO4 solutions (mM FeSO4). The regression equation from the standard curve was used to calculate the equivalent concentration 1 (EC1) of each sample. EC1 is defined as the concentration of the test sample with an absorbance equivalent to that of 1.0 mmol/L of FeSO4 solution, determined by its calibration curve.

[3] = tested on: fluorescent AGEs (human serum albumin glycated with D-fructose and glucose); assay: Non-enzymatic glycation of HSA, determination of fluorescent AGEs; assay type: biochemical; details: for The inhibition rate of fluorescent AGE 360/453 nm (%): single replicate
Protocol: The anti-glycative ability of samples were assessed by measuring the amounts of fluorescent AGEs. 100 μL human serum albumin (4 mg/ml HSA) was glycated with 100 μL D-fructose (0.05 mol/L) and 100 μL glucose (0.05 mol/L) in the presence of samples in potassium phosphate buffer (0.2 mol/L, pH7.4, 0.06% NaN3) and incubated at 50° C. for […]. The incubated solutions were then used for the following assays. Rutin was the positive control.
The fluorescence intensity of the incubated solutions under the λex/λem=360/453 nm was recorded on microplate reader. The inhibition rate of fluorescent AGEs was calculated by the following equation: […]
where A1 is the fluorescence intensity of glycation system without samples; A2 is the fluorescence intensity of glycation system without HSA and samples; A3 is the fluorescence intensity of glycation system with HSA, sugar and samples; and A4 is the fluorescence intensity of glycation system without HSA.

[4] = Online UPLC-PDA-MS-ABTS·+ scavenging (post-column derivatisation); assay type: biochemical; details: online profiling of DOF extract
Protocol: Online identification of antioxidant components of DOF extract was performed using a UPLC system (Milford, MA, USA) consisting of a Waters photodiode array detector and a Waters postcolumn derivatisation system supplying fresh ABTS solution (UPLC-PDA-QDa-ABTS). […] The detection wavelengths were set at 280 and 734 nm, and the injection volume of the sample was 10 μl.
To detect radical scavengers, the UPLC system was coupled with a Waters pump, which supplied freshly prepared ABTS·+ solution into a reaction coil (15 m, 0.25 mm ID) with a flow rate of 0.2 ml/min at 37° C. Negative peaks were recorded based on a decrease of absorbance at 729 nm after the reaction of individual compounds with the ABTS·+ radical. For preliminary identification of compounds, a Waters Acquity QDa mass detector in negative ionisation mode was connected in series to PDA with the following parameters: electrospray ion source; cone voltage, 15 V; atomiser, N2; and scanning range, 100-800 m/z.

COX-2 = molecular target: T1, COX-2 (Homo sapiens, UniProt P35354); assay: Anti-COX-2 assay (COX-2 Inhibitor Screening Kit); assay type: biochemical
T1 construct: purchased Beyotime S0168
T1 sequence (P35354 18-604): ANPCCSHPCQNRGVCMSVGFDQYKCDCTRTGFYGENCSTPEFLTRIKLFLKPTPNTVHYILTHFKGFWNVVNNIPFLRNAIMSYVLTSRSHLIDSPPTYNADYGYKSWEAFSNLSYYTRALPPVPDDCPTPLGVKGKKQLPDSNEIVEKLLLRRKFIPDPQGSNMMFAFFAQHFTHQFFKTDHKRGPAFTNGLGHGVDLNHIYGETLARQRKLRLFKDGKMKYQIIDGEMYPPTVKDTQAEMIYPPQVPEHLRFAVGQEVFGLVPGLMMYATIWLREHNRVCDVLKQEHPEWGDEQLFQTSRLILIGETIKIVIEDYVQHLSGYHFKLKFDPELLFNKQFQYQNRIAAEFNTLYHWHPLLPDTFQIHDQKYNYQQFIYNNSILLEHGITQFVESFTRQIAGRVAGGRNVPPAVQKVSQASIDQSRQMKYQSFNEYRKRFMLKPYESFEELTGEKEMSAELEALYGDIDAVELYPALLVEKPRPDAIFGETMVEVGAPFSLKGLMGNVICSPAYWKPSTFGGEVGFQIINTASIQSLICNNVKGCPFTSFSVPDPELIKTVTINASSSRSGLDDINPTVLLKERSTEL
Protocol: Anti-inflammatory activity was assessed by measuring COX-2 enzymatic inhibition on the basis of a described method by using the COX-2 Inhibitor Screening Kit (Beyotime, No. S0168). Celecoxib, a COX-2 inhibitor, was used as a positive control.

type III collagen = assay: Collagen type III in HDFs by immunofluorescence; assay type: cell-based, human; details: positive drug, VC 200 μg/ml, 48 h, IF
Protocol: (§1) HDFs were cultured in DMEM with 10% (v/v) FBS and 1% PS at 37° C. in a humidified 5% CO2 incubator. Cells were subcultured using pancreatin solution after reaching confluence. All experiments were performed between the third and eighth passages.
(§2) The synthesis of collagen types I and III was detected using IF and ELISA. HDFs were digested and seeded in a 24-well culture plate on slides at a density of 50,000 cells/well in a complete medium. After reaching 80% confluency, cells were starved with the medium in the absence of serum for 16 h. Cells were then treated with positive controls or active samples (prepared in medium without serum) for an additional 48 h. For analysis and visualisation of types I and III collagens, the supernatants and remaining cell slides were both collected and analysed using ELISA kits and the IF staining method, respectively.
(§3) Collected supernatants were centrifuged at 10,000 rpm for 10 min and used for types I and III collagen ELISA, according to the manufacturer's protocol. The remaining cell slides were washed once with PBS and fixed in polyformaldehyde overnight at 4° C. Subsequently, the slides were treated with 0.5% Triton-X100 for 5 min. After washing, cells were blocked with 1% BSA at room temperature for 1 h. […] ImageJ software was used to quantify collagen expression from different images randomly selected in each group.

type I collagen [5] = assay: Collagen type I in HDFs by immunofluorescence; assay type: cell-based, human; details: positive drug, VC 200 μg/ml, 48 h, IF
Protocol: as §1, §2, §3

type I collagen [6] = assay: Extracellular collagen type I of HDFs by ELISA; assay type: cell-based, human; details: VC, 48 h, culture medium
Protocol: as §1, §2, §3

## C[C@@H]1O[C@@H](OC[C@H]2O[C@@H](Oc3c(-c4ccc(O)c(O)c4)oc4cc(O)cc(O)c4c3=O)[C@H](O)[C@@H](O)[C@@H]2O)[C@H](O)[C@H](O)[C@H]1O [Compound 24, Rutin]
DPPH· scavenging assay
  antioxidant ability by DPPH (in words): great antioxidant potency
DPPH· scavenging assay; listed as rutin
  antioxidant ability by DPPH (in words): selective and significant antioxidant abilities
[1]
  IC50: 222 ± 13.5 µM
[2]
  antioxidant ability by FRAP (in words): great antioxidant potency
[2]; Table 11, mean ± SD, n = 3
  FRAP EC1: 205 µM
[2]; listed as rutin
  antioxidant ability by FRAP (in words): selective and significant antioxidant abilities
[3]; 3.125 μg/ml
  Average % inhibition: 2.02%
  The inhibition rate of fluorescent AGE 360/453 nm (%): 2.34% and −3.34% and 7.07%
[3]; 6.25 μg/ml
  Average % inhibition: 22.00%
  The inhibition rate of fluorescent AGE 360/453 nm (%): 18.13% and 25.69% and 22.17%
[3]; 12.5 μg/ml
  Average % inhibition: 41.15%
  The inhibition rate of fluorescent AGE 360/453 nm (%): 35.84% and 42.05% and 45.57%
[3]; 25 μg/ml
  Average % inhibition: 61.91%
  The inhibition rate of fluorescent AGE 360/453 nm (%): 55.85% and 64.92% and 64.97%
[3]; 50 μg/ml
  Average % inhibition: 75.80%
  The inhibition rate of fluorescent AGE 360/453 nm (%): 74.72% and 79.59% and 73.08%
[3]; 100 μg/ml
  Average % inhibition: 81.90%
  The inhibition rate of fluorescent AGE 360/453 nm (%): 81.88% and 81.51% and 82.32%
[3]; 200 μg/ml
  Average % inhibition: 85.69%
  The inhibition rate of fluorescent AGE 360/453 nm (%): 84.54% and 85.94% and 86.58%
[3]; 400 μg/ml
  Average % inhibition: 91.19%
  The inhibition rate of fluorescent AGE 360/453 nm (%): 90.91% and 91.13% and 91.53%
[4]
  ABTS radical scavenging by size of negative peaks at 734 nm (in words): strongest ABTS radical scavengers
COX-2
  COX-2 inhibition (in words): great COX-2 inhibition; also recorded: outstanding COX-2 inhibitory effects
COX-2; listed as rutin
  COX-2 inhibition (in words): potent COX-2 inhibitory capacity

## O=C1O[C@H]([C@@H](O)CO)C(O)=C1O [vitamin C]
Type III collagen
  Collagen type III expression, % of control: 125.90 % of control
Type I collagen [5]
  Collagen type I expression, % of control: 190.20 % of control
Type I collagen [6]
  increase of secreted collagen type I levels: 21.94%
